Assay: Water solubility of the p-toluenesulfonic acid salt at different pH
Format: physicochemical
Description: The water solubility of p-toluenesulfonic acid salt of the compound represented by the above formula (IA), namely 17-(cyclopropylmethyl)-6,7-didehydro-4,5α-epoxy-3,6,14-trihydroxy-N-[2-(3-phenyl-1,2,4-oxadiazol-5-yl) propan-2-yl]morphinan-7-carboxamide 4-methylbenzene sulfonic acid is more than 1,000 μg/mL in pH 1 or 4, but the water solubility in pH 7 decreases than the solubility in pH 1 or 4.

## CC(C)(NC(=O)C1=C(O)[C@@H]2Oc3c(O)ccc4c3[C@@]23CCN(CC2CC2)[C@H](C4)[C@]3(O)C1)c1nc(-c2ccccc2)no1 [17-(cyclopropylmethyl)-6,7-didehydro-4,5α-epoxy-3,6,14-trihydroxy-N-[2-(3-phenyl-1,2,4-oxadiazol-5-yl)propan-2-yl]morphinan-7-carboxamide 4-methylbenzenesulfonic acid]
pH 7, compared with pH 1 or 4
  water solubility: decreases
water, simulated gastric fluid, pH 1 or 4
  solubility: > 1000 µg/mL
